In the oligonucleotide strings, read from the 5' end, every base follows the letter of its sugar. An asterisk marks phosphorothioate; unmarked linkages are phosphodiester. Other units and linkages are bracketed, terminal groups are in braces. A string of capitals states the bases alone. e = 2'-O-(2-methoxyethyl) (MOE); [5mC] = 5-methylcytosine; d = 2'-deoxy (DNA)
Legend:
Format in all cases: cell-based, human
PPARγ = PPARγ mRNA expression in adipocytes (real-time PCR)
HSL = HSL mRNA expression in adipocytes (real-time PCR)
adipocytes = experiment: Triglyceride accumulation assay in adipocytes
aP2 = aP2 mRNA expression in adipocytes (real-time PCR); settings: for aP2 mRNA: Table 75
Glut4 = Glut4 mRNA expression in adipocytes (real-time PCR)
[1] = Table 17, differentiating adipocytes, control = treatment with ISIS 342673
[2] = differentiating adipocytes transfected with oligomeric compound, Table 75
[3] = differentiating adipocytes transfected with oligomeric compound

Substance	PPAR gamma mRNA (PPARγ; [1])	PPAR gamma mRNA (PPARγ; [2])	HSL mRNA (HSL; [1])	HSL mRNA (HSL; [2])	TG (triglyceride accumulation) (adipocytes; [1])	TG (triglyceride accumulation) (adipocytes; [2])	AP2 mRNA (aP2; [1])	aP2 mRNA (aP2; [3])	GLUT4 mRNA (Glut4; [1])	GLUT4 mRNA (Glut4; [2])	PPAR gamma mRNA (PPARγ; [3])	HSL mRNA (HSL; [3])	TG (triglyceride accumulation) (adipocytes; [3])	AP2 mRNA (aP2; [3])	GLUT4 mRNA (Glut4; [3])
328135 (eA*e[5mC]*e[5mC]*eG*eA*eA*e[5mC]*eA*eA*eA*eG*eT*e[5mC]*eT*eG*eA*e[5mC]*eA*eG*eG*eA; anti-miR) [compound 328135]	70.0 percentage of control	33 percentage of untreated control (UTC)	76.7 percentage of control	20 percentage of untreated control (UTC)	63.6 percentage of control	29 percentage of untreated control (UTC)	80.6 percentage of control	34 percentage of untreated control (UTC)	90.3 percentage of control	19 percentage of untreated control (UTC)	–	–	–	–	–
328139 (eT*eA*e[5mC]*eT*eT*eT*eT*e[5mC]*eA*eT*eT*e[5mC]*e[5mC]*e[5mC]*e[5mC]*eT*e[5mC]*eA*e[5mC]*e[5mC]*eA; anti-miR) [compound 328139]	115.0 percentage of control	91 percentage of untreated control (UTC)	92.6 percentage of control	116 percentage of untreated control (UTC)	89.1 percentage of control	90 percentage of untreated control (UTC)	98.3 percentage of control	100 percentage of untreated control (UTC)	106.3 percentage of control	85 percentage of untreated control (UTC)	–	–	–	–	–
328340 (eT*eA*eA*eT*eA*dT*dA*dT*dA*dT*dT*dT*d[5mC]*dA*d[5mC]*eT*eA*e[5mC]*eG*e[5mC]) [compound 328340]	–	–	–	–	–	–	–	–	–	–	110 percentage of untreated control (UTC)	130 percentage of untreated control (UTC)	76 percentage of untreated control (UTC)	85 percentage of untreated control (UTC)	112 percentage of untreated control (UTC)
340343 (antisense ACAGGAGUCUGAGCAUUUGA; all 2'-MOE, all phosphorothioate, methylation of C and T or U not given here) [compound 340343]	–	59 percentage of untreated control (UTC)	–	46 percentage of untreated control (UTC)	–	35 percentage of untreated control (UTC)	–	60 percentage of untreated control (UTC)	–	33 percentage of untreated control (UTC)	–	–	–	–	–
340352 (antisense CACAAGAUCGGAUCUACGGGUU; all 2'-MOE, all phosphorothioate, methylation of C and T or U not given here) [compound 340352]	–	102 percentage of untreated control (UTC)	–	123 percentage of untreated control (UTC)	–	110 percentage of untreated control (UTC)	–	107 percentage of untreated control (UTC)	–	97 percentage of untreated control (UTC)	–	–	–	–	–
340354 (antisense UCAGACCGAGACAAGUGCAAUG; all 2'-MOE, all phosphorothioate, methylation of C and T or U not given here) [compound 340354]	–	74 percentage of untreated control (UTC)	–	56 percentage of untreated control (UTC)	–	64 percentage of untreated control (UTC)	–	72 percentage of untreated control (UTC)	–	61 percentage of untreated control (UTC)	–	–	–	–	–
340356 (antisense CUCAAUAGACUGUGAGCUCCUU; all 2'-MOE, all phosphorothioate, methylation of C and T or U not given here) [compound 340356]	–	62 percentage of untreated control (UTC)	–	59 percentage of untreated control (UTC)	–	43 percentage of untreated control (UTC)	–	73 percentage of untreated control (UTC)	–	54 percentage of untreated control (UTC)	–	–	–	–	–
340358 (antisense CAGCUAUGCCAGCAUCUUGCC; all 2'-MOE, all phosphorothioate, methylation of C and T or U not given here) [compound 340358]	–	42 percentage of untreated control (UTC)	–	24 percentage of untreated control (UTC)	–	23 percentage of untreated control (UTC)	–	47 percentage of untreated control (UTC)	–	21 percentage of untreated control (UTC)	–	–	–	–	–
340360 (antisense GCAACUUAGUAAUGUGCAAUA; all 2'-MOE, all phosphorothioate, methylation of C and T or U not given here) [compound 340360]	–	96 percentage of untreated control (UTC)	–	102 percentage of untreated control (UTC)	–	106 percentage of untreated control (UTC)	–	102 percentage of untreated control (UTC)	–	91 percentage of untreated control (UTC)	–	–	–	–	–
341791 (antisense GCUUCCAGUCGAGGAUGUUUACA; all 2'-MOE, all phosphorothioate, methylation of C and T or U not given here) [compound 341791]	–	75 percentage of untreated control (UTC)	–	72 percentage of untreated control (UTC)	–	50 percentage of untreated control (UTC)	–	80 percentage of untreated control (UTC)	–	47 percentage of untreated control (UTC)	–	–	–	–	–
341795 (antisense AACCAAUGUGCAGACUACUGUA; all 2'-MOE, all phosphorothioate, methylation of C and T or U not given here) [compound 341795]	–	74 percentage of untreated control (UTC)	–	74 percentage of untreated control (UTC)	–	57 percentage of untreated control (UTC)	–	76 percentage of untreated control (UTC)	–	55 percentage of untreated control (UTC)	–	–	–	–	–
341796 (antisense UCAUACAGCUAGAUAACCAAAGA; all 2'-MOE, all phosphorothioate, methylation of C and T or U not given here) [compound 341796]	–	66 percentage of untreated control (UTC)	–	67 percentage of untreated control (UTC)	–	59 percentage of untreated control (UTC)	–	74 percentage of untreated control (UTC)	–	58 percentage of untreated control (UTC)	–	–	–	–	–
341797 (antisense ACAAGUGCCUUCACUGCAGU; all 2'-MOE, all phosphorothioate, methylation of C and T or U not given here) [compound 341797]	–	50 percentage of untreated control (UTC)	–	29 percentage of untreated control (UTC)	–	20 percentage of untreated control (UTC)	–	45 percentage of untreated control (UTC)	–	17 percentage of untreated control (UTC)	–	–	–	–	–
341798 (antisense GCAUUAUUACUCACGGUACGA; all 2'-MOE, all phosphorothioate, methylation of C and T or U not given here) [compound 341798]	–	70 percentage of untreated control (UTC)	–	77 percentage of untreated control (UTC)	–	62 percentage of untreated control (UTC)	–	84 percentage of untreated control (UTC)	–	55 percentage of untreated control (UTC)	–	–	–	–	–
341799 (antisense ACCUAAUAUAUCAAACAUAUCA; all 2'-MOE, all phosphorothioate, methylation of C and T or U not given here) [compound 341799]	–	89 percentage of untreated control (UTC)	–	103 percentage of untreated control (UTC)	–	98 percentage of untreated control (UTC)	–	101 percentage of untreated control (UTC)	–	89 percentage of untreated control (UTC)	–	–	–	–	–
344268 (antisense ACACAAAUUCGGUUCUACAGGG; all 2'-MOE, all phosphorothioate, methylation of C and T or U not given here) [compound 344268]	–	53 percentage of untreated control (UTC)	–	44 percentage of untreated control (UTC)	–	57 percentage of untreated control (UTC)	–	46 percentage of untreated control (UTC)	–	22 percentage of untreated control (UTC)	–	–	–	–	–
344269 (antisense UAACCGAUUUCAAAUGGUGCUA; all 2'-MOE, all phosphorothioate, methylation of C and T or U not given here) [compound 344269]	–	48 percentage of untreated control (UTC)	–	35 percentage of untreated control (UTC)	–	42 percentage of untreated control (UTC)	–	41 percentage of untreated control (UTC)	–	28 percentage of untreated control (UTC)	–	–	–	–	–
344275 (antisense UCUAGUGGUCCUAAACAUUUCA; all 2'-MOE, all phosphorothioate, methylation of C and T or U not given here) [compound 344275]	–	46 percentage of untreated control (UTC)	–	39 percentage of untreated control (UTC)	–	36 percentage of untreated control (UTC)	–	36 percentage of untreated control (UTC)	–	21 percentage of untreated control (UTC)	–	–	–	–	–
